# Reference: patent publication US12023335B2, “Method for treating pancreatic cancer” (PTC THERAPEUTICS, INC., priority 2018, dated 2024)
# Entries after “also recorded” stand apart in the source; their conditions may differ.
# Assays:
# Aspc1 cells [1] = assay: Aspc1 cell viability over time (AlamarBlue proliferation curves); assay type: cell-based, human; details: 0.1 μM or 1.0 μM, relative to vehicle (FIG. 1a)
# Procedure: For proliferation curves, cells were plated in 96-well plates (Corning, 3603) and allowed to seed overnight. Replicate plates were plated for each time point since viability measurements were an endpoint procedure. The following day, cells were treated with Compound at indicated concentrations and treated with DMSO at the highest used concentration (always below 0.003%). Cells were treated for 96 hours, and viability was determined every 24 hours using AlamarBlue reagent (BioRad, BUF012B). Briefly, 10 μL of AlamarBlue was added to each well (100 μL), mixed briefly, and allowed to incubate at 37° C. and 5% CO2 for 4 hours. Following incubation, fluorescence was measured on a Promega multimode microplate reader. For analysis, background levels were subtracted from raw results, which were then normalized to be represented as a fold change compared to DMSO-treated cells on Day 0. All assays were carried out in at least triplicate with 4-8 technical replicates per treatment group, per experiment. (FIG. 1a and FIG. 10b)
# [2] = test system: J1002VEH and J1002TAM cells; assay: Cell cycle analysis of J1002VEH and J1002TAM cells; assay type: cell-based, mouse
# Procedure: (§1) Cells were seeded into 12-well or 6-well plates such that 16 hours later they would be approximately 30-50% confluent. Cells were then treated for 24 hours with either DMSO (<0.003%), Compound 1 (100 nM or 1 μM), or 100 nM nocodazole (Sigma, M1404). Following treatment, cells were harvested and fixed in ice-cold 70% ethanol for a minimum of one hour. Following fixation, cells were re-suspended in PBS+2% FBS+3 μM DAPI (BioLegend, 422801) or 0.25 μg 7-AAD (BD Pharmingen, 559925), and analyzed on a MACSQuant® Analyzer 10 (Miltenyi Biotec) or BD LSR II™. For cell cycle analysis time course experiments, cells were prepared as described above, except treated for 24, 48, or 72 hours. Data was analyzed using FlowJo software. Percent populations in G2/M were identified using the univariate cell cycle platform offered by FlowJo software. Percent populations >4N were determined by gating above the 4N population of DMSO-treated cells. (FIG. 1b, FIG. 1c, FIG. 2a, FIG. 2b, FIG. 10e, and FIG. 10g)
# PDA tumors in KPC mice = assay: KPC intervention/survival study; assay type: in vivo; details: KPC mice (FIGS. 7a, 7b)
# Procedure: Tumor formation in KPC mice was monitored by weekly palpation until the detection of a mass. Upon positive palpation, the mass was monitored by twice weekly ultrasound until the tumor reached an enrollable size of 4-7 mm average diameter. Once enrollable, KPC mice were randomly enrolled into a treatment arm of the intervention study. Mice were treated with vehicle, Compound 1 (17 mg/kg, PO, b.i.w.), gemcitabine alone (100 mg/kg, IP, b.i.w.), or Compound 1+gemcitabine. Mice receiving Compound 1 also received gemcitabine vehicle (saline, IP, b.i.w.) at a volume (μL) of 50× body weight (g). Mice receiving gemcitabine also received Compound 1 vehicle (0.5% hydroxypropylmethylcellulose with 0.1% Tween80 (w/v), PO, b.i.w.) at a volume (μL) of 5.7× body weight (g). All drug and vehicle combinations were administered simultaneously.
# Tumor ultrasonography and volume quantification were carried out as described in Sastra S A, Olive K P, Quantification of murine pancreatic tumors by high-resolution ultrasound, Methods Mol Biol 2013; 980:249-66. […]
# To prepare samples for immunohistochemistry, tissues were first fixed overnight in 10% phosphate-buffered formalin and then stored in 70% ethanol for long-term storage. […] Next, antigen retrieval was carried out in an experimentally determined, antibody-specific antigen retrieval buffer (usually 10 mM citrate, pH 6.0 or 10 mM Tris, pH 10.0). […]
# Aspc1 cells [3] = assay: Cell cycle analysis by flow cytometry (DNA content, PH3) in Aspc1 cells; assay type: cell-based, human
# Procedure: as §1
# For phospho-Histone H3 (PH3) staining, cells were fixed and permeabilized according to manufacturer's instructions using the eBioscience Foxp3/Transcription Factor Staining Buffer Set (ThermoFisher, 00-5523-00). Cells were blocked with Fc Block (BD Biosciences, 564220) and stained using a PH3 (Ser10) antibody (BioLegend, 650805) with 5 uL per million cells (45 min, room temp, dark). Samples were analyzed on a BD Fortessa™ and analyzed by FlowJo software. (FIG. 1d and FIG. 3a)
# [4] = Plasma pharmacokinetic time course in mice after a single oral dose; assay type: in vivo; details: single oral dose 10 mg/kg (FIG. 4a)
# Procedure: Blood plasma and tissue samples to be used for analysis were immediately frozen on dry ice and stored at −80° C. until analysis. Concentrations of Compound 1 in samples were quantified using high-performance liquid chromatography with tandem mass spectrometry (LC-MS/MS). Compound 1 and its internal standard (deuterated Compound 1) were recovered by protein precipitation extraction from samples.
# For the plasma pharmacokinetic time course study, a standard curve was made to cover concentrations between 0.001 ug/mL and 3.0 μg/mL. The lower limit of quantification (LLOQ) for Compound 1 (either version) in plasma was 0.001 μg/mL. (FIG. 4a)
compound,measurement,setting,value
"Cc1nc2ccc(F)cc2n1-c1nc(N)c(F)c(Nc2ccc(C(F)(F)F)cc2)n1 [Compound 1, 5-fluoro-2-(6-fluoro-2-methyl-1H-benzo[d]imidazol-1-yl)-N4-[4-(trifluoromethyl)phenyl]pyrimidine-4,6-diamine]",relative Aspc1 cell viability over time,Aspc1 cells [1],dose and time-dependent decrease in human PDA cell viability
same,cell cycle distribution / polyploidy of J1002VEH and J1002TAM cells,"[2]; 1.0 μM, 24 hours (FIGS. 10d-10g)",dose and time-dependent increase in the amount of BMI-1 dependent cells affected by polyploidy
same,BMI-1 hyperphosphorylation (conclusion from FIG. 10 data as a whole),[2]; data taken as a whole,induces BMI-1 hyperphosphorylation indirectly as a result of mitotic arrest
same,tumor volumes by high resolution 3D ultrasound,PDA tumors in KPC mice,time-dependent decrease in KPC mouse model PDA tumor volume
same,"cell cycle arrest (percent cells in G0/G1, S, G2/M; percent in mitosis PH3+/4N)","Aspc1 cells [3]; 0.1 μM or 1.0 μM, 24 hours (FIGS. 1b-1d)",dose and time-dependent effect in cell cycle arrest
same,percent of Aspc1 cells with DNA content >4N (polyploidy),"Aspc1 cells [3]; 0.1 μM or 1.0 μM, 24, 48, 72 hours (FIGS. 2a, 2b)",dose and time-dependent increase in the amount of human PDA cells affected by polyploidy
same,mitotic arrest and apoptosis,Aspc1 cells [3]; multiple PDA cell lines (summary statement),induce mitotic arrest and apoptosis in multiple PDA cell lines
same,CNS penetration / brain distribution,[4],penetrates the CNS and distributes into brain tissues
same,plasma / circulating half-life,[4]; 10 mg/kg,long circulating half-life; also recorded: long plasma half-life
